What all share (assay type): in vivo
For assay [1], the system named is adult flies Musca domestica strain WHO-N. The assay can be described thus: Musca domestica test (MUSCDO surface treatment & contact assay). The settings on record: 24 hours after contact, read-out: efficacy (mortality); for mortality at 4 mg/m2: surface concentration 4 mg/m^2, 30 minutes exposure; for mortality at 20 mg/m2: surface concentration 20 mg/m^2, 30 minutes exposure. The gist of the method: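 Compound dissolved in acetone (2 mg/ml) with 2000 ppm rapeseed oil methyl ester and dried onto a glazed tile. Adult flies exposed to the treated surface for 30 min. Percent mortality scored 24 h after contact.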

In assay [2] the test system is cattle tick larvae (Rhipicephalus microplus). In words: Rhipicephalus (Boophilus) microplus in-vitro contact test, larval cattle tick (strain Parkhurst, resistant against synthetic pyrethroids). Conditions: 1 μg/cm^2 (=100 g/ha), after 48 hours, read-out: efficacy (larvae dead or moribund). An outline of the steps: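 Compound in acetone coated onto the inner walls of glass tubes (900 ppm giving 5 μg/cm^2), solvent evaporated, then 20–50 larvae added and held at 27 °C, 85% RH. After 48 h, efficacy scored from negative geotactic behaviour as % dead or moribund larvae.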

The test system of assay [3] is adult cat fleas (Ctenocephalides felis). The assay can be described thus: Ctenocephalides felis in-vitro contact test, adult cat flea. The settings on record: 1 μg/cm^2 (=100 g/ha), after 48 hours. The method, then:
Ctenocephalides felis—In-Vitro Contact Tests Adult Cat Flea
(§1) 9 mg compound is solved in 1 mL acetone and diluted with acetone to the desired concentration. 250 μL of the test solution is filled in 25 mL glass test tubes and homogeneously distributed on the inner walls by rotation and tilting on a shaking device (2 h at 30 rpm). With a compound concentration of 900 ppm, an inner surface of 44.7 cm^2 and a homogeneous distribution, a dose of 5 μg/cm^2 is achieved.
After the solvent has evaporated, each test tube is filled with 5-10 adult cat fleas (Ctenocephalides felis), closed with a perforated lid and incubated in a lying position at room temperature and relative humidity.
After 48 hours efficacy is determined. The fleas are patted on the ground of the tubes and are incubated on a heating plate at 45-50° C. for at most 5 minutes. Immotile or uncoordinated moving fleas, which are not able to escape the heat by climbing upwards, are marked as dead or moribund.
An efficacy of 100% means all fleas are dead or moribund; 0% means no fleas are dead or moribund.

In assay [4] the test system is larvae of the banded cucumber beetle (Diabrotica balteata). In words: Diabrotica balteata spray test. Conditions: 168 h, 100 g/ha (=32 μg/well), wheat seeds, after 7 days, read-out: efficacy (seedling growth). An outline of the steps:
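Germinated wheat seedlings (5 per well, on agar) sprayed with compound in acetone/dimethylformamide diluted in water with 1000 ppm emulsifier, then infested with 10-20 Diabrotica balteata larvae. Efficacy (%) scored after 7 days: 100% = seedling growth as untreated, uninfested control; 0% = no seedlings grown.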

The subject of assay [5] is green peach aphid (Myzus persicae). In words: Myzus persicae spray test. The settings on record: foliar, 120 h, 100 g/ha, Chinese cabbage leaf disks, after 5 days. The method, then: Myzus persicae—Spray Test • Solvent: 78.0 parts by weight acetone • 1.5 parts by weight dimethylformamide • Emulsifier: alkylarylpolyglycol ether
(§2) To produce a suitable preparation of active compound, 1 part by weight of active compound is mixed with the stated amount of solvents and is diluted with water, containing an emulsifier concentration of 1000 ppm, to the desired concentration. Further test concentrations are prepared by dilution with emulsifier containing water.
Chinese cabbage (Brassica pekinensis) leaf disks infected with all instars of the green peach aphid (Myzus persicae), are sprayed with a preparation of the active ingredient of the desired concentration.
After 5 days mortality in % is determined. 100% means all aphids have been killed and 0% means none of the aphids have been killed.

The subject of assay [6] is adult mosquitoes Aedes aegypti strain MONHEIM. The assay can be described thus: Aedes aegypti test (AEDSAE surface treatment & contact assay). Conditions: 24 hours after contact, read-out: efficacy (mortality); for mortality at 4 mg/m2: surface concentration 4 mg/m^2, 30 minutes exposure; for mortality at 20 mg/m2: surface concentration 20 mg/m^2, 30 minutes exposure. The gist of the method:
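Test compound dissolved in acetone (2 mg/ml) with 2000 ppm rapeseed oil methyl ester, applied to glazed tile and dried. Adult Aedes aegypti MONHEIM placed on surface for 30 min exposure; % mortality scored 24 h after contact.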

The subject of assay [7] is fall armyworm larvae (Spodoptera frugiperda). In words: Spodoptera frugiperda spray test. The settings on record: 168 h, maize leaf sections, after 7 days. The gist of the method: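 Percent kill of Spodoptera frugiperda caterpillars read at day 7. Larvae placed on dried Zea mays leaf pieces previously sprayed with test preparation, made from acetone plus DMF and diluted with emulsifier-containing water (1000 ppm).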

Assay [8] has as its system adult mosquitoes Culex quinquefasciatus strain P00. In words: Culex quinquefasciatus test (CULXFA surface treatment & contact assay). Conditions: surface concentration 20 mg/m^2, 30 minutes exposure, 24 hours after contact, read-out: efficacy (mortality). An outline of the steps:
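Compound dissolved in acetone (2 mg/ml) with 2000 ppm RME and applied to glazed tile; after acetone evaporation, adults exposed to dried surface for 30 min. Percent mortality scored 24 h after contact.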

Assay [9] relates to brown planthopper (Nilaparvata lugens). In words: Nilaparvata lugens spray test. Conditions: 96 h, rice plants, after 4 days. The method, then: Nilaparvata lugens—Spray Test • Solvent: 78.0 parts by weight of acetone • 1.5 parts by weight of dimethylformamide • Emulsifier: alkylarylpolyglycol ether
as §2
Rice plants (Oryza sativa) are sprayed with a preparation of the active ingredient of the desired concentration and the plants are infested with the brown planthopper (Nilaparvata lugens).
After 4 days mortality in % is determined. 100% means all planthoppers have been killed and 0% means none of the planthoppers have been killed.

Assay [10] concerns adult brown dog ticks (Rhipicephalus sanguineus). In words: Rhipicephalus sanguineus in-vitro contact test with adult brown dog ticks. The settings on record: 1 μg/cm^2 (=100 g/ha), after 48 hours. The method, then: Rhipicephalus sanguineus—In-Vitro Contact Tests with Adult Brown Dog Ticks
as §1
After the solvent has evaporated, each test tube is filled with 5-10 adult brown dog ticks (Rhipicephalus sanguineus), closed with a perforated lid and incubated in a lying position at room temperature and relative humidity. After 48 hours efficacy is determined. The ticks are patted on the ground of the tubes and are incubated on a heating plate at 45-50° C. for at most 5 minutes. Immotile or uncoordinated moving ticks, which are not able to escape the heat by climbing upwards, are marked as dead or moribund.
An efficacy of 100% means all ticks are dead or moribund; 0% means no ticks are dead or moribund.

Assay [11] has as its system adult Blattella germanica strain PAULINIA
In words: whole plant or invertebrate. The settings on record: read-out: efficacy (mortality). As for the experimental part: Blattella germanica Test (BLTTGE Surface Treatment & Contact Assay) • Solvent: Aceton+2000 ppm rapeseed oil methyl ester (RME)
In order to produce a sufficient, active ingredient containing solution it is necessary to solve the test compound in the solvent-mix (acetone at 2 mg/ml/RME 2000 ppm). This solution is pipetted onto a glazed tile and after evaporation of the acetone, adult animals of the species Blattella germanica strain PAULINIA are placed onto the dried surface. The exposure time is 30 minutes.
Mortality in percent (%) is determined 24 hours after contact of the insects to the treated surface. 100% mortality means that all tested insects are dead, whereas 0% means that no insect died.

Assay [12] relates to larvae of the southern green stink bug (Nezara viridula). The assay can be described thus: Nezara viridula spray test. Conditions: 96 h, barley plants, after 4 days. An outline of the steps:
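Mortality (%) of stink bug larvae on treated barley (Hordeum vulgare) was scored 4 days after infestation. Test solutions came from an acetone/DMF concentrate diluted with water containing 1000 ppm emulsifier and were sprayed onto plants before larvae were added.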

A word on the mortality: it is the share of the test organisms that died. Consider `C[C@H](NC(=O)c1cc(C(F)(F)F)cc(C(F)(F)F)c1)c1nc2cccnc2n1-c1ccc(C#N)cn1` [Example I-15], for which the mortality at 4 mg/m2 in [1] and in [6] was 80 to 100% in each case. The mortality at 20 mg/m2 in assay [1], in assay [6] and in assay [8] was 80 to 100% in each case. For the same compound, the pest or weed control at 1 µg/cm2, 100 g/ha in [2] is 100%. Further, in [3], the “efficacy (fleas dead or moribund)” value amounted to 80%. The pest or weed control at 32 µg/disc, 100 g/ha in assay [4] stood at 100%. Moreover, the mortality at 100 g/ha in [5] came to 90%; in [7] it was 100%. This compound also displayed a mortality at 500 g/ha in assay [9] of 90%. The “efficacy (ticks dead or moribund)” value in [10] is given as 80%.
Regarding `CC(NC(=O)c1cc(OC(F)(F)F)cc(OC(F)(F)F)c1)c1nc2cccnc2n1-c1ncccn1` (centres unmarked) [Example I-31], the mortality at 4 mg/m2 in assay [1] and in assay [6] was 80 to 100% each time. Further, the mortality at 20 mg/m2 in [1], in [11], in assay [6] and in assay [8] was 80 to 100% each time. The pest or weed control at 1 µg/cm2, 100 g/ha in assay [2] worked out at 100%. Also, the mortality at 500 g/ha in assay [12] came to 100%. Besides, the pest or weed control at 32 µg/disc, 100 g/ha in assay [4] was found to be 100%. Further, the mortality at 100 g/ha is 90% in [5] and 100% in assay [7].

The record behind these values is US20240254121A1, “ALKYLAMIDE SUBSTITUTED, ANNULATED IMIDAZOLES AND USE THEREOF AS INSECTICIDES” (Bayer Aktiengesellschaft, priority 2021, published 2024).
